Results: patent US20250136722A1, “CYTOTOXICITY TARGETING CHIMERAS” (GLAXOSMITHKLINE INTELLECTUAL PROPERTY DEVELOPMENT LIMITED, priority 2021, published 2025)

Molecular target: T1, CHOK1 cells engineered to overexpress human CCR2 (Homo sapiens, UniProt P41597)
T1 construct: expressed in transfected cells; host or cells: CHOK1 cells
Test: Antibody dependent cellular cytotoxicity (ADCC) reporter assay (Example 199)
Format: cell-based
Details: with anti-cotinine antibody SEQ ID NO: 11/12; CHOK1-human CCR2 target cells, Jurkat FcγRIIIa NFAT-luciferase reporter cells; 12-18 hours; read-out: ADCC Reporter Assay pEC50 (converted)
Description: An antibody dependent cellular cytoxicity reporter assay was conducted using the following four assay components: (i) ARM compound of Formula (I) targeting CCR2 (concentrations ranging from 1 pM to 10 μM) (ii) anti-cotinine antibody having a heavy chain sequence of SEQ ID NO: 11 and a light chain sequence of SEQ ID NO: 12 (rabbit variable region with human IgG1 Fc domain containing a DE mutation (S239D/1332E)) (concentrations ranging from 0.01 μg/mL to 200 μg/mL); (iii) target cells: CHOK1 cells engineered to overexpress either human CCR2 (typically 1000-20,000 cells per well) and (iv) reporter cells: Jurkat cells engineered to express FcγRIIIa with the reporter gene luciferase under the control of the NFAT promoter (typically 3000-75,000 cells per well). Reagents were combined in a final volume of 20 μL in a 384-well tissue culture treated plate. All four assay components were incubated together for about 12-18 hours. Thereafter, BioGlo Detection reagent (Promega) was added to the wells to lyse the cells and provide a substrate for the luciferase reporter protein. Luminescence signal was measured on a microplate reader and signal:background was calculated by dividing the signal of a test well by the signal obtained when no heterobivalent compound of Formula (I) was added. EC50 calculations were done using Graphpad Prism Software, specifically a nonlinear regression curve fit (Y=Bottom+(Top−Bottom)/(1+10^((Log EC50−X)*HillSlope))).
ARMs compounds of Formula (I) of the invention were tested for ADCC activity in the above assay in or more experimental runs and the results are shown in Table 3 below. Potency of the compounds of Formula (I) of the invention is reported as a pEC50 value. The pEC50 value is the negative log of the EC50 value, wherein the EC50 value is the half maximal effective concentration measured in molar (M). For compounds tested in more than one experimental run, the pEC50 value is reported as an average.

SMILES	EC50 [nM]
CC(C)N(C)[C@@H]1CC[C@H](N2CC[C@H](Nc3ncnc4ccc(C(F)(F)F)cc34)C2=O)[C@H](NC(=O)[C@H]2CC[C@H](N3CCN(C(=O)CCOCCOCCNC(=O)[C@H]4CC(=O)N(C)[C@@H]4c4cccnc4)CC3)CC2)C1 [Example 96, (2S,3S)-N-(2-(2-(3-(4-((1R,4r)-4-(((1R,2S,5R)-5-(Isopropyl(methyl)amino)-2-((S)-2-oxo-3-((6-(trifluoromethyl)quinazolin-4-yl)amino)pyrrolidin-1-yl)cyclohexyl)carbamoyl)cyclohexyl)piperazin-1-yl)-3-oxopropoxy)ethoxy)ethyl)-1-methyl-5-oxo-2-(pyridin-3-yl)pyrrolidine-3-carboxamide]	6.31
CC(C)N(C)[C@@H]1CC[C@H](N2CC[C@H](Nc3ncnc4ccc(C(F)(F)F)cc34)C2=O)[C@H](NC(=O)[C@H]2CC[C@H](N3CCN(C4CC(CCNC(=O)[C@H]5CC(=O)N(C)[C@@H]5c5cccnc5)C4)CC3)CC2)C1 (stereo partly drawn) [Example 97, (2S,3S)-N-(2-(3-(4-((1R,4S)-4-(((1R,2S,5R)-5-(Isopropyl(methyl)amino)-2-((S)-2-oxo-3-((6-(trifluoromethyl)quinazolin-4-yl)amino)pyrrolidin-1-yl)cyclohexyl)carbamoyl)cyclohexyl)piperazin-1-yl)cyclobutyl)ethyl)-1-methyl-5-oxo-2-(pyridin-3-yl)pyrrolidine-3-carboxamide]	6.31
CN1C(=O)C[C@H](C(=O)NCCOCC(=O)NCCOCC(=O)N[C@H]2CC[C@@H](C(=O)N[C@@H]3C[C@H](NC(C)(C)C)CC[C@@H]3N3CC[C@H](Nc4ncnc5ccc(C(F)(F)F)cc45)C3=O)CC2)[C@H]1c1cccnc1 [Example 100]	1.2
CC(C)N(C)[C@@H]1CC[C@H](N2CC[C@H](Nc3ncnc4ccc(C(F)(F)F)cc34)C2=O)[C@H](NC(=O)[C@H]2CC[C@@H](NC(=O)CCOCCNC(=O)CCOCCCNC(=O)[C@H]3CC(=O)N(C)[C@@H]3c3cccnc3)CC2)C1 [Example 101]	0.278
CN1C(=O)C[C@H](C(=O)NCCOCC(=O)NCCOCCC(=O)NCCOCCC(=O)N[C@@H]2C[C@H](NC(C)(C)C)CC[C@@H]2N2CC[C@H](Nc3ncnc4ccc(C(F)(F)F)cc34)C2=O)[C@H]1c1cccnc1 [Example 106]	0.558
CC(C)N(C)[C@@H]1CC[C@H](N2CC[C@H](Nc3ncnc4ccc(C(F)(F)F)cc34)C2=O)[C@H](NC(=O)[C@H]2CC[C@H](NC(=O)CCO[C@H]3CC[C@@H](OCCNC(=O)[C@H]4CC(=O)N(C)[C@@H]4c4cccnc4)CC3)CC2)C1 [Example 114]	5.77
CC(C)N(C)[C@@H]1CC[C@H](N2CC[C@H](Nc3ncnc4ccc(C(F)(F)F)cc34)C2=O)[C@H](NC(=O)[C@H]2C[C@H](NC(=O)CCO[C@H]3CC[C@@H](OCCNC(=O)[C@H]4CC(=O)N(C)[C@@H]4c4cccnc4)CC3)C2)C1 [Example 116]	5.01
CC(C)N(C)[C@@H]1CC[C@H](N2CC[C@H](Nc3ncnc4ccc(C(F)(F)F)cc34)C2=O)[C@H](NC(=O)[C@H]2C[C@H](NC(=O)CCO[C@H]3CC[C@H](OCCNC(=O)[C@H]4CC(=O)N(C)[C@@H]4c4cccnc4)CC3)C2)C1 [Example 117]	0.316
CC(C)N(C)[C@@H]1CC[C@H](N2CC[C@H](Nc3ncnc4ccc(C(F)(F)F)cc34)C2=O)[C@H](NC(=O)CCOCCOCCNC(=O)[C@@H]2CCCN2CCOCCNC(=O)[C@H]2CC(=O)N(C)[C@@H]2c2cccnc2)C1 [Example 118, (S)-N-(2-(2-(3-(((1R,2S,5R)-5-(Isopropyl(methyl)amino)-2-((S)-2-oxo-3-((6-(trifluoromethyl)quinazolin-4-yl)amino)pyrrolidin-1-yl)cyclohexyl)amino)-3-oxopropoxy)ethoxy)ethyl)-1-(2-(2-((2S,3S)-1-methyl-5-oxo-2-(pyridin-3-yl)pyrrolidine-3-carboxamido)ethoxy)ethyl)pyrrolidine-2-carboxamide]	3.98
CN1C(=O)C[C@H](C(=O)NCCOCCOCCC(=O)N[C@H]2CC[C@@H](C(=O)N[C@@H]3C[C@H](NC(C)(C)C)CC[C@@H]3N3CC[C@H](Nc4ncnc5ccc(C(F)(F)F)cc45)C3=O)CC2)[C@H]1c1cccnc1 [Example 120, (2S,3S)-N-(2-(2-(3-(((1S,4s)-4-(((1R,2S,5R)-5-(tert-Butylamino)-2-((S)-2-oxo-3-((6-(trifluoromethyl)quinazolin-4-yl)amino)pyrrolidin-1-yl)cyclohexyl)carbamoyl)cyclohexyl)amino)-3-oxopropoxy)ethoxy)ethyl)-1-methyl-5-oxo-2-(pyridin-3-yl)pyrrolidine-3-carboxamide]	5.46
CC(C)N(C)[C@@H]1CC[C@H](N2CC[C@H](Nc3ncnc4ccc(C(F)(F)F)cc34)C2=O)[C@H](NC(=O)c2cccc(NCCOCCOCCOCCOCCNC(=O)[C@H]3CC(=O)N(C)[C@@H]3c3cccnc3)n2)C1 [Example 123, N-((1R,2S,5R)-5-(Isopropyl(methyl)amino)-2-((S)-2-oxo-3-((6-(trifluoromethyl)quinazolin-4-yl)amino)pyrrolidin-1-yl)cyclohexyl)-6-((1-((2S,3S)-1-methyl-5-oxo-2-(pyridin-3-yl)pyrrolidin-3-yl)-1-oxo-5,8,11,14-tetraoxa-2-azahexadecan-16-yl)amino)picolinamide]	5.01
CC(C)N(C)[C@@H]1CC[C@H](N2CC[C@H](Nc3ncnc4ccc(C(F)(F)F)cc34)C2=O)[C@H](NC(=O)c2cccc(NCCOCCOCCOCCOCCOCCNC(=O)[C@H]3CC(=O)N(C)[C@@H]3c3cccnc3)n2)C1 [Example 124]	2
CC(C)N(C)[C@@H]1CC[C@H](N2CC[C@H](Nc3ncnc4ccc(C(F)(F)F)cc34)C2=O)[C@H](NC(=O)c2ccc(NCCOCCOCCOCCOCCNC(=O)[C@H]3CC(=O)N(C)[C@@H]3c3cccnc3)nn2)C1 [Example 125]	3.16
CC(C)N(C)[C@@H]1CC[C@H](N2CC[C@H](Nc3ncnc4ccc(C(F)(F)F)cc34)C2=O)[C@H](NC(=O)c2ccnc(NCCOCCOCCOCCOCCNC(=O)[C@H]3CC(=O)N(C)[C@@H]3c3cccnc3)c2)C1 [Example 126]	1.58
CC(C)N(C)[C@@H]1CC[C@H](N2CC[C@H](Nc3ncnc4ccc(C(F)(F)F)cc34)C2=O)[C@H](NC(=O)c2cc(NCCOCCOCCOCCOCCNC(=O)[C@H]3CC(=O)N(C)[C@@H]3c3cccnc3)ncn2)C1 [Example 127]	1
CC(C)N(C)[C@@H]1CC[C@H](N2CC[C@H](Nc3ncnc4ccc(C(F)(F)F)cc34)C2=O)[C@H](NC(=O)c2ccc(NCCOCCOCCOCCOCCNC(=O)[C@H]3CC(=O)N(C)[C@@H]3c3cccnc3)nc2)C1 [Example 128, N-((1R,2S,5R)-5-(Isopropyl(methyl)amino)-2-((S)-2-oxo-3-((6-(trifluoromethyl)quinazolin-4-yl)amino)pyrrolidin-1-yl)cyclohexyl)-6-((1-((2S,3S)-1-methyl-5-oxo-2-(pyridin-3-yl)pyrrolidin-3-yl)-1-oxo-5,8, 11, 14-tetraoxa-2-azahexadecan-16-yl)amino)nicotinamide]	1
